Reference: patent US8802597B2, “Herbicidal pyrimidines” (E I du Pont de Nemours and Company, priority 2003, dated 2014)

Experiments:
Assay type in all cases: in vivo
[1] = tested on: Surinam grass (Brachiaria decumbens); assay: Test B pre/postemergence
Method in brief: (§1)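 Under greenhouse conditions, seeded pots and young plants (1- to 4-leaf, 2 to 18 cm) were treated at the same time with test chemicals in a non-phytotoxic solvent mixture containing surfactant. Response was assessed visually after 13 to 15 days, from 0 (no effect) to 100 (complete control).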

[2] = tested on: barnyardgrass (Echinochloa crus-galli); assay: Test B pre/postemergence
Method in brief: as §1

[3] = tested on: cocklebur (Xanthium strumarium); assay: Test B pre/postemergence
Method in brief: as §1

[4] = tested on: corn (Zea mays); assay: Test B pre/postemergence
Method in brief: as §1

[5] = tested on: crabgrass (Digitaria sanguinalis); assay: Test B pre/postemergence
Method in brief: as §1

[6] = tested on: giant foxtail (Setaria faberii); assay: Test B pre/postemergence
Method in brief: as §1

[7] = tested on: lambsquarters (Chenopodium album); assay: Test B pre/postemergence
Method in brief: as §1

[8] = tested on: morningglory (Ipomoea coccinea); assay: Test B pre/postemergence
Method in brief: as §1

[9] = tested on: pigweed (Amaranthus retroflexus); assay: Test B pre/postemergence
Method in brief: as §1

[10] = tested on: velvetleaf (Abutilon theophrasti); assay: Test B pre/postemergence
Method in brief: as §1

[11] = tested on: wheat (Triticum aestivum); assay: Test B pre/postemergence
Method in brief: as §1

[12] = tested on: blackgrass (Alopecurus myosuroides); assay: Test B postemergence
Method in brief: as §1

[13] = tested on: wild oat (Avena fatua); assay: Test B postemergence
Method in brief: as §1

[14] = tested on: barnyardgrass (Echinochloa crus-galli); assay: Test B flooded paddy test; settings: Flood, 1000 g ai/ha; scale 0 (no effect) to 100 (complete control)
Method in brief: (§2)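 Plants were grown to the 2-leaf stage before treatment, then kept in a greenhouse for 13 to 15 days. Injury was rated visually against untreated controls on a 0 to 100 scale, where 0 is no effect and 100 is complete control.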

[15] = tested on: duck salad (Heteranthera limosa); assay: Test B flooded paddy test; settings: Flood, 1000 g ai/ha; scale 0 to 100
Method in brief: as §2

[16] = tested on: rice (Oryza sativa); assay: Test B flooded paddy test; settings: Flood, 1000 g ai/ha; scale 0 to 100
Method in brief: as §2

[17] = tested on: umbrella sedge (Cyperus difformis); assay: Test B flooded paddy test; settings: Flood, 1000 g ai/ha; scale 0 to 100
Method in brief: as §2

[18] = Postemergence, 125 g ai/ha, scale 0 to 100 (0 no effect, 100 complete control)
[19] = Postemergence, 500 g ai/ha, scale 0 to 100
[20] = Preemergence, 125 g ai/ha, scale 0 to 100 (0 no effect, 100 complete control)
[21] = Preemergence, 500 g ai/ha, scale 0 to 100 (0 no effect, 100 complete control)
[22] = 125 g ai/ha, scale 0 to 100 (0 no effect, 100 complete control)

Nc1nc(C2CC2)nc(C=NO)c1Br [Compound 27]
70: Surinam Grass plant response rating [1, 21] | Crabgrass plant response rating [5, 21] | Morningglory plant response rating [8, 18] | Plant response rating, Pigweed [9, 19] | Plant response rating, Velvetleaf [10, 19]
80: Plant response rating, Cocklebur [3, 20] | Lambsquarters plant response rating [7, 18] | Plant response rating, Morningglory [8, 20] | Plant response rating, Velvetleaf [10, 20]
0: Surinam Grass plant response rating [1, 18] | Plant response rating, Surinam Grass [1, 19] | Plant response rating, Surinam Grass [1, 20] | Barnyardgrass plant response rating [2, 18] | Plant response rating, Barnyardgrass [2, 19] | Corn plant response rating [4, 18] | Plant response rating, Foxtail, Giant [6, 20] | Plant response rating, Barnyardgrass [14]
40: Foxtail, Giant plant response rating [6, 21]
60: Barnyardgrass plant response rating [2, 21] | Pigweed plant response rating [9, 18] | Velvetleaf plant response rating [10, 18] | Plant response rating, Ducksalad [15] | Plant response rating, Sedge, Umbrella [17]
100: Cocklebur plant response rating [3, 18] | Plant response rating, Cocklebur [3, 19] | Lambsquarters plant response rating [7, 21] | Pigweed plant response rating [9, 21]
20: Plant response rating, Corn [4, 19] | Foxtail, Giant plant response rating [6, 18] | Wheat plant response rating [11, 18] | Oat, Wild plant response rating [13, 22] | Plant response rating, Rice [16]
10: Plant response rating, Corn [4, 20] | Crabgrass plant response rating [5, 18] | Plant response rating, Crabgrass [5, 19] | Plant response rating, Wheat [11, 20]
50: Corn plant response rating [4, 21] | Wheat plant response rating [11, 21]
90: Cocklebur plant response rating [3, 21] | Plant response rating, Lambsquarters [7, 19] | Plant response rating, Lambsquarters [7, 20] | Plant response rating, Morningglory [8, 19] | Morningglory plant response rating [8, 21] | Plant response rating, Pigweed [9, 20] | Velvetleaf plant response rating [10, 21]
30: Plant response rating, Barnyardgrass [2, 20] | Plant response rating, Crabgrass [5, 20] | Plant response rating, Foxtail, Giant [6, 19] | Plant response rating, Wheat [11, 19] | Blackgrass plant response rating [12, 22] | Plant response rating, Blackgrass ([12]; 500 g ai/ha, scale 0 to 100) | Plant response rating, Oat, Wild ([13]; 500 g ai/ha, scale 0 to 100)
